Earlier results, collected in patent US20230414783A1, “Biliary Delivery Methods, Compositions and Kits for Use Therein” (AMBYS MEDICINES, INC., priority 2020, published 2023).

Tested on: lysyl oxidase (LOX) family enzymes
Conditions: subcutaneous injection or intravenous infusion; human subjects

For Cc1cc(F)c(C(=O)Nc2cccc(-c3nncn3C(C)C)n2)cc1-n1cnc(C2CC2)c1 [selonsertib], the clinical efficacy is given as “did not demonstrate clinical efficacy”.
